# Publication PMC4604765, “Eye drop delivery of pigment epithelium-derived factor-34 promotes retinal ganglion cell neuroprotection and axon regeneration” (Molecular and Cellular Neurosciences, 2015)
# No end group written: not given here.
# What was measured:
# RGC axons = experiment: RGC axon regeneration after optic nerve crush (GAP-43 immunohistochemistry of optic nerve); format: in vivo, rat; details: 21 days after ONC; for number of GAP-43+ axons distal from the lesion site: daily eye drops 1.88 nM; for number of GAP-43+ axons in distal optic nerve stump: weekly intravitreal 1.88 nM
# Description: In a separate set of experiments comprising the same treatment groups, 6 rats/treatment (i.e. 12 eyes/optic nerves/treatment) were used to evaluate RGC axon regeneration by immunostaining with growth-associated protein-43 (GAP-43) in the optic nerve.
# In further experiments, 12 rats (24 eyes/optic nerves)/treatment received 1.88 nM PEDF-34 eye drops daily. Six rats (12 eyes)/treatment were used to assess RGC survival at 21 days using FG backfilling, whilst the remaining 6 rats (12 eyes/optic nerves)/treatment were used to evaluate RGC axon regeneration at 21 days by GAP-43 immunohistochemistry.
# All animal procedures were licenced and approved by the United Kingdom Home Office and the University of Birmingham ethical review committee and conformed to the Federation of European Laboratory Animal Associations (FELASA) guidelines. Optic nerves were exposed surgically in anaesthetised adult female Sprague–Dawley rats (170–220 g) through a supraorbital approach and crushed bilaterally using calibrated watchmakers forceps, 2 mm from the lamina cribrosa as described by us previously ([Vigneswara et al., 2013, 2014]).
# Either PBS, or 0.268, 0.67, 1.34, 1.88, or 2.68 nM PEDF dissolved in 5 μl of sterile PBS was injected intravitreally immediately after ONC (0 days) and repeated at 7 and 14 days after ONC with the same doses of PEDF. […] Animals survived for 19 days before FG back-labelling and killing by rising CO2 levels 2 days later, and eyes/optic nerves harvested for retinal FG wholemounts.
# Animals were killed with an overdose of CO2 and intracardially perfused with 4% formaldehyde, eyes and optic nerves were immersion fixed in 4% formaldehyde for a further 2 h before cryoprotection in a graded series of sucrose. Eyes and optic nerves were embedded in optimal cutting temperature (OCT) compound (Raymond A. Lamb, Eastbourne, UK) and stored at − 80 °C. Subsequently, 15 μm-thick parasagittal eye or longitudinal optic nerve sections were cut using a cryostat (Brights Instruments, Huntingdon, UK), adhered onto glass slides and stored at − 20 °C until required.
# Immunohistochemistry was performed as described by us previously ([Vigneswara et al., 2013, 2014]). Briefly, sections were thawed, washed at RT in PBS and permeabilised. Non-specific binding sites were blocked in 3% bovine serum albumin (BSA) containing 0.1% Triton X-100 and then sections were incubated in primary antibody diluted in PBS containing 3% BSA and 0.05% Tween-20, overnight at 4 °C (16–18 h). Monoclonal anti-GAP-43 antibody (1:500 dilution; Invitrogen) stained regenerating axons in optic nerve sections (Table 1). […] Sections were then washed in PBS and incubated with either Alexa Fluor 488 or Texas Red-labelled secondary antibodies (1:400 dilution; Invitrogen) for 1 h at RT, washed in PBS, mounted in Vectamount containing DAPI (Vector Laboratories) and examined with a Zeiss Axioplan 2 fluorescent microscope, equipped with an AxioCam HRc camera and Axiovision software. The negative control sections were used to set the background threshold levels of fluorescence before image capture.
# Regenerating axons in the optic nerve were quantified using previously published methods ([Leon et al., 2000; Lorber et al., 2009; Vigneswara et al., 2013, 2014]). […] Briefly, an observer blinded to the identity of the slides […] through each nerve (n = 6 rats/12 optic nerves/treatment).
# [1] = test system: embryonic rat spinal motor neurons; details: ref Bilak et al., 2002; cited from earlier work
# Text: Axotomised RGCs are not viable unless treated with neurotrophic factors such as brain-derived neurotrophic factor, ciliary neurotrophic factor and glial cell line-derived factor ([Ahmed et al., 2006b; Benowitz and Yin, 2007; Watanabe et al., 2003; Yip and So, 2000]). Recently, we confirmed that, after optic nerve crush (ONC), PEDF is RGC neuroprotective and axogenic ([Vigneswara et al., 2013]), whilst other neuroprotective and anti-angiogenic N-terminal fragments of the native peptide exist ([Bilak et al., 2002; Gvritishvili et al., 2010; Li et al., 2006; Mirochnik et al., 2009]) including the ...
sequence,measurement,setting,value
DPFFKVPVNKLAAAVSNFGYDLYRVRSSTSPTTN [PEDF-34],number of GAP-43+ axons distal from the lesion site,"RGC axons; 200 μm distal, n = 6 rats/12 optic nerves",4049 ± 355 axons
same,number of GAP-43+ axons distal from the lesion site,RGC axons; 500 μm distal,2893 ± 315 axons
same,number of GAP-43+ axons distal from the lesion site,RGC axons; 1000 μm distal,2043 ± 120 axons
same,number of GAP-43+ axons distal from the lesion site,RGC axons; 1500 μm distal,1285 ± 126 axons
same,number of GAP-43+ axons distal from the lesion site,RGC axons; 2000 μm distal,884 ± 139 axons
same,number of GAP-43+ axons distal from the lesion site,RGC axons; 2500 μm distal,582 ± 155 axons
same,number of GAP-43+ axons in distal optic nerve stump,"RGC axons; 200 μm from the lesion site, n = 6 rats/12 optic nerves",2038 ± 234 axons
same,number of GAP-43+ axons in distal optic nerve stump,RGC axons; 500 μm from the lesion site,1733 ± 237 axons
same,number of GAP-43+ axons in distal optic nerve stump,RGC axons; 1000 μm from the lesion site,1462 ± 175 axons
same,number of GAP-43+ axons in distal optic nerve stump,RGC axons; 1500 μm from the lesion site,945 ± 100 axons
same,number of GAP-43+ axons in distal optic nerve stump,RGC axons; 2000 μm from the lesion site,79 ± 44 axons
same,time to detection in vitreous body,,< 30 min
same,neuroprotection of embryonic rat spinal motor neurons,[1],not neuroprotective
